System: eye
Experiment: Eye irritation test according to Draize
Format: in vivo
Source text: The good compatibility of the partial esters according to the invention with skin and mucous membranes is evident from the following investigations. In Table 1, the results of an eye irritation test, according to Draize, for the products of the invention are compared with those of anionic surfactants known to be acceptable dermatologically. It should be noted that substantially higher concentrations of the active products of the invention, than of the prior art compounds, were used in the test.
The Draize test was performed according to the provisions of the Appraisal of the Safety of Chemicals in Food, Drugs and Cosmetics, published by the United States Food and Drug Administration in 1959. According to this method, appraisal points are assigned as follows: […]

Molecule | Evaluation points according to Draize score (concentration % active substance: 100 (Examples 1, 3, 4), 65 (Example 2), 50 (Example 5, Na lauryl ether sulfate, undecylic acid semi-ester Na salt), 40 (tallow coco fat alcohol sulfate Na salt), 35 (ammonium lauryl sulfate)) [Points] | Evaluation points according to Draize score (in vivo) [Points] | Evaluation range (Draize) (in vivo)
CCCCCCCCCCCCOS(=O)(=O)O.N [Ammonium lauryl sulfate] | 12.9 | – | –
CCCCCCCCCCC(=O)NCCOC(=O)CC(C(=O)[O-])S(=O)(=O)O.CCCCCCCCCCC(=O)NCCOC(=O)CC(C(=O)[O-])S(=O)(=O)O.[Na+].[Na+] (stereo not shown) [Na salt of undecylic acid monethanolamide sulfo succinic acid semi-ester] | – | 19.6 | Slightly irritant
Na lauryl ether sulfate | – | 14.2 | Slightly irritant
Tallow coco fat alcohol sulfate Na salt | – | 24.3 | Slightly irritant

— patent US4376789A, “Surfactants which are polyhydric alcohol partial esters of adducts of maleic anhydride with an unsaturated carboxylic acid” (Grillo-Werke AG, priority 1980, dated 1983)
